Experimental data as given in a melting point compilation (Tetko et al.; mined from patent text by program, amines drawn as free bases though some values may be those of a salt).

Structure (SMILES) | melting point [°C]
COc1ccc(S(=O)(=O)N(CC(=O)O)Cc2ccccc2N)cc1 | 145 to 147
O=C(c1cccs1)c1cnn2c(-c3cccc(-c4nnn(CCN5CCCCC5)n4)c3)ccnc12 | 117
CCCN(CCOc1c(Cl)cccc1Cl)C1CCc2c(ccc(OCc3ccc(OC(=O)C(C)C)cc3)c2OCc2ccc(OC(=O)C(C)C)cc2)C1 (centres undefined) | 84 to 86
CCOC(=O)N(O)Cc1cccc(Nc2ccccc2C(=O)OC)c1C | 101 to 103
Cc1cccc(CCC(CO)n2cnc(C(N)=O)c2)c1 (centres undefined) | 116 to 118
O=C(c1ccccc1CBr)c1ccc(F)cc1CBr | 98 to 99
CC1CC(=O)NN=C1c1ccc2c(c1)NC(=O)C(C)O2 (centres undefined) | 271 to 272
Oc1ccc2c(c1)c1c(n2CCCCCN2CCCCC2)-c2ccccc2SCC1 | 182
S=C1Nc2ccccc2Sc2ccccc21 | 245 to 246
CCCOCCOc1ccc(COc2ccc3c(c2)C=C(C(=O)Nc2ccc(CN(C)C4CCOCC4)cc2)CCS3(=O)=O)cc1OCC | 146 to 147
Cc1ccc2c(c1)N(CC(=O)c1ccccc1C)C(=O)C(NC(=O)Nc1ccc(Cl)c(C(=O)O)c1)CN2C(=O)C(C)(C)C (centres undefined) | 178 to 180
CC(C)NCC(O)COc1cccnc1N (centres undefined) | 110
CCNC(=O)NCCCN1C(=Nc2ccc3c(c2)OCO3)CSC1c1ccccc1OC (centres undefined) | 134 to 136
Cc1noc(NC(=O)N2CCC(c3nc(-c4ccc(F)cc4)cs3)CC2)c1C | 170 to 171
Nc1nnc(-c2cccc(OC(F)(F)C(F)F)c2)c(N)n1 | 199 to 200
COC(=O)CCc1cc(S(C)(=O)=O)cc(-c2nc(=O)c3ccc(Cl)cc3s2)n1 | 203 to 204
CC(C)(C)OC(=O)CNC(=O)CC(c1ccccc1)c1ccccc1 | 77 to 81
CN=C1c2ccccc2CCc2ccccc21 | 89 to 90
CC(=O)Nc1ccc2c(c1)C(c1cccn1-c1cccc(Cl)c1)C(=O)N2 (centres undefined) | 251
CCc1cccc(C)c1CNc1nc(C(=O)N(C)C)cc2[nH]c(C)nc12 | 207 to 208
Cc1ccc(S(=O)(=O)C(=[N+]=[N-])S(C)(=O)=O)cc1 | 108 to 109
Cc1ccccc1C(=O)Nc1ccc(-n2nc(C3CC3)cc2C2CC2)c(F)c1 | 105 to 107
CC(=O)c1ccccc1-c1noc2ccccc12 | 108
O=C(CSc1nc2ccccc2[nH]1)c1ccc2[nH]c3ncc(Cl)cc3c2c1 | 209 to 210
Oc1ccc2c(c1)C13CCCCC1N(C2)NCC3 (single isomer, unassigned; (-)) | 244 to 246

Structure (SMILES) | melting point [°C]
N#Cc1cc(-c2ccc3c(c2)C(C2CC2)(C2CC2)OC(=O)N3)cs1 | 244 to 245
CCc1cccc(Nc2ncnc3cc(OCCOC)c(OCCOC)cc23)c1 | 72 to 74
COc1cc(Br)c(OC)c(C=O)c1 | 62 to 64
COc1ccc2cc3c(=O)c(C#N)c[nH]c3cc2c1 | > 265
COC(=O)c1ccc(-c2nc3ccccc3o2)cc1 | 190 to 191
COc1ccc(-c2nc(CCl)cs2)cc1 | 125 to 128
CC(C)(C)OC(=O)NCCSc1cccc2nccn12 | 105 to 107
CCOC(=O)C(=O)Nc1c([N+](=O)[O-])sc2cc(OC)ccc12 | 195 to 196
Cc1cccc(NC(=O)C2=C(O)c3ccc4ccccc4c3S(=O)(=O)N2)c1 | 245
O=C(O)C(=O)c1cc(Cl)c(OCCOc2ccc3ccccc3c2)c(Cl)c1 | 108 to 110
O=C(Nc1ccccn1)c1cnc2c(C(F)(F)F)cccc2c1O | 335 to 336
COc1cc(CC(N)=O)cc(OC(F)F)c1OC | 104 to 105
CC(C)(C)OC(=O)Nc1ccc(-c2ccc(OCc3ccccc3)nc2)cc1[N+](=O)[O-] | 119 to 122
Cn1ccc(-n2ccnc2S)n1 | 126 to 128
FCCOc1cccc(CBr)c1OCCF | 99 to 100
COc1cc(-c2ccc(F)cc2)nc(-c2ccccn2)n1 | 97 to 98
Cc1cccc(C)c1NC(=O)CN1CCN(CC(O)CC(c2ccc(F)cc2)c2ccc(F)cc2)C(C(N)=O)C1 (centres undefined) | 110
COCC(Oc1ccc(Nc2ccc(C(F)(F)F)cc2[N+](=O)[O-])cc1)C(=O)OC (centres undefined) | 57
CC(C)Cn1c(=O)n(C)c(=O)c2cc(Cc3cccc4ccccc34)sc21 | 137 to 138
CC(COS(C)(=O)=O)N1c2ccccc2Sc2ccc(C#N)cc21 (racemic) | 124
CONC(=O)NC1CCC(=O)c2ccccc21 (centres undefined) | 148 to 151
C=NOC(C(=O)O)c1cccc(NC(=O)NCC(=O)N2C(c3ccccc3)CCC2c2ccccc2)c1 (centres undefined) | 194
COc1ccc(C(=O)Nc2ccccc2C(O)Cc2ccccn2)cc1 (centres undefined) | 127 to 128
CC(C)CCCC(C)NC(=O)CCC(=NNC(N)=S)c1ccccc1 (centres undefined) | 58 to 65
